Data as given in PubChem BioAssay AID330 (DTP/NCI, 2004).
Several values for one entry are separate records, joined by “and”; a condition that tells them apart may be missing. Equal entries are not always repeated. Inconclusive results and toxic doses are left out.

Tested on: P388 leukemia ip, CD2F1 mice, survival T/C
Assay: NCI In Vivo Anticancer Drug Screen. Data for tumor model P388 Leukemia (intraperitoneal) in CD2F1 (CDF1) mice
Details: endpoint: median survival time, higher = longer survival
Outline: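 Mice carrying the transplanted tumor received test compound or vehicle. Survival was recorded in each group, and the value is the treated-group measurement divided by that of the vehicle-treated control group.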

In the case of `O=C(O)CCC(=O)OC(C1CO1)C(OC(=O)CCC(=O)O)C1CO1` (stereo unspecified), the T/C (dose: 2.5 mg/kg/injection, schedule: Q01DX009 (ip), vehicle: saline) is reported as 90 % of control, the T/C (dose: 2.5 mg/kg/injection, schedule: Q01DX009 (ip), vehicle: sodium bicarbonate) is reported as 103 % of control and the T/C (dose: 5.0 mg/kg/injection, schedule: Q01DX009 (ip), vehicle: saline) is reported as 116 % of control. The T/C (dose: 5.0 mg/kg/injection, schedule: Q01DX009 (ip), vehicle: sodium bicarbonate) was 101 % of control, the T/C (dose: 10.0 mg/kg/injection, schedule: Q01DX009 (ip), vehicle: sodium bicarbonate) was 120 % of control and the T/C (dose: 20.0 mg/kg/injection, schedule: Q01DX009 (ip), vehicle: saline) was 153 % of control. The T/C (dose: 20.0 mg/kg/injection, schedule: Q01DX009 (ip), vehicle: sodium bicarbonate) was 122 % of control, the T/C (dose: 40.0 mg/kg/injection, schedule: Q01DX009 (ip), vehicle: saline) was 167 % of control and the T/C (dose: 80.0 mg/kg/injection, schedule: Q01DX009 (ip), vehicle: saline) was 206 % of control. For the same compound, the T/C (dose: 80.0 mg/kg/injection, schedule: Q01DX009 (ip), vehicle: sodium bicarbonate) was 169 % of control, the T/C (dose: 160.0 mg/kg/injection, schedule: Q01DX009 (ip), vehicle: sodium bicarbonate) was 198 % of control and the T/C (dose: 320.0 mg/kg/injection, schedule: Q01DX009 (ip), vehicle: saline) was 87 % of control. For the same compound, the T/C (dose: 320.0 mg/kg/injection, schedule: Q01DX009 (ip), vehicle: sodium bicarbonate) was 93 % of control.

In the case of `CCOc1c(OC)cc(-c2n[nH]c(=O)o2)cc1OC`, the T/C (dose: 33.75 mg/kg/injection, schedule: Q01DX009 (ip), vehicle: Klucel (hydroxypropylcellulose) (HPC)) is reported as 90 % of control, the T/C (dose: 67.5 mg/kg/injection, schedule: Q01DX009 (ip), vehicle: Klucel (hydroxypropylcellulose) (HPC)) is reported as 105 % of control and the T/C (dose: 135.0 mg/kg/injection, schedule: Q01DX009 (ip), vehicle: Klucel (hydroxypropylcellulose) (HPC)) is reported as 99 % of control.

For `NCCCC(NN)C(=O)O` (stereo unspecified), the T/C (dose: 3.3 mg/kg/injection, schedule: Q01DX009 (ip), vehicle: saline) was 101 % of control and 90 % of control, the T/C (dose: 6.6 mg/kg/injection, schedule: Q01DX009 (ip), vehicle: saline) was 100 % of control and 95 % of control and the T/C (dose: 7.5 mg/kg/injection, schedule: Q01DX009 (ip), vehicle: saline) was 100 % of control. The T/C (dose: 10.0 mg/kg/injection, schedule: Q01DX009 (ip), vehicle: saline) was 99 % of control and 97 % of control, the T/C (dose: 15.0 mg/kg/injection, schedule: Q01DX009 (ip), vehicle: saline) was 109 % of control and 93 % of control and the T/C (dose: 22.5 mg/kg/injection, schedule: Q01DX009 (ip), vehicle: saline) was 102 % of control and 110 % of control. The T/C (dose: 30.0 mg/kg/injection, schedule: Q01DX009 (ip), vehicle: saline) was 103 % of control.

`CCOC(=O)C(Cl)c1ccc(OC)cc1` (stereo unspecified) was tested, and the T/C (dose: 100.0 mg/kg/injection, schedule: Q04DX003 (ip), vehicle: other) was 104 % of control, the T/C (dose: 200.0 mg/kg/injection, schedule: Q04DX003 (ip), vehicle: other) was 90 % of control and the T/C (dose: 400.0 mg/kg/injection, schedule: Q04DX003 (ip), vehicle: other) was 104 % of control.

`CCCCN(CCCC)CC(O)c1ccc(F)c2ccccc12` (stereo unspecified) was tested, and the T/C (dose: 12.5 mg/kg/injection, schedule: Q01DX005 (ip), vehicle: saline) was 96 % of control, the T/C (dose: 25.0 mg/kg/injection, schedule: Q01DX005 (ip), vehicle: saline) was 105 % of control and the T/C (dose: 50.0 mg/kg/injection, schedule: Q01DX005 (ip), vehicle: saline with Tween-80) was 113 % of control. For the same compound, the T/C (dose: 50.0 mg/kg/injection, schedule: Q01DX005 (ip), vehicle: saline) was 99 % of control and the T/C (dose: 100.0 mg/kg/injection, schedule: Q01DX005 (ip), vehicle: saline with Tween-80) was 97 % of control.

For `CN(C=O)/C=C1\CC(OO)NC1=O` (stereo unspecified), the T/C (dose: 60.0 mg/kg/injection, schedule: Q01DX005 (ip), vehicle: saline) was 100 % of control, the T/C (dose: 120.0 mg/kg/injection, schedule: Q01DX005 (ip), vehicle: saline) was 101 % of control and the T/C (dose: 240.0 mg/kg/injection, schedule: Q01DX005 (ip), vehicle: saline) was 103 % of control.

In the case of `CC(=O)N=c1ccc2nc3c(cc(N)c4ccccc43)oc-2c1`, the T/C (dose: 10.0 mg/kg/injection, schedule: Q01DX005 (ip), vehicle: Klucel (hydroxypropylcellulose) (HPC)) is reported as 98 % of control, the T/C (dose: 20.0 mg/kg/injection, schedule: Q01DX005 (ip), vehicle: Klucel (hydroxypropylcellulose) (HPC)) is reported as 100 % of control and the T/C (dose: 40.0 mg/kg/injection, schedule: Q01DX005 (ip), vehicle: Klucel (hydroxypropylcellulose) (HPC)) is reported as 98 % of control.

For `CN(C)c1ccc2c(SCC(=O)OCC(=O)C3(O)CCC4C5CCC6=CC(=O)C=CC6(C)C5C(O)CC43C)c3ccc(N(C)C)cc3nc2c1` (stereo unspecified), the T/C (dose: 12.5 mg/kg/injection, schedule: Q01DX005 (ip), vehicle: Klucel (hydroxypropylcellulose) (HPC)) was 98 % of control and 97 % of control, the T/C (dose: 25.0 mg/kg/injection, schedule: Q01DX005 (ip), vehicle: Klucel (hydroxypropylcellulose) (HPC)) was 111 % of control and 93 % of control and the T/C (dose: 50.0 mg/kg/injection, schedule: Q01DX005 (ip), vehicle: Klucel (hydroxypropylcellulose) (HPC)) was 123 % of control and 96 % of control. For the same compound, the T/C (dose: 100.0 mg/kg/injection, schedule: Q01DX005 (ip), vehicle: Klucel (hydroxypropylcellulose) (HPC)) was 118 % of control and 122 % of control.
